Measurements published in a melting point compilation (Tetko et al.; mined from patent text by program, amines drawn as free bases though some values may be those of a salt).

Row | SMILES | melting point
1 | NNC(=O)c1cccc(-c2csc(N=C(N)N)n2)n1 | 233 to 234 °C
2 | CC(C)(C)c1ccnc(NC(=O)Nc2ccc(Oc3ccc(Cl)cc3)cc2)c1 | 198 to 199 °C
3 | CC(C)(c1ccccc1)c1ccc(OCC(=O)O)c(C(C)(C)c2ccccc2)c1 | 114 °C
4 | CCOC(=O)C(=CN(C)C)C(=O)c1cc(F)c(N2CCC(NC(C)=O)C2)nc1Nc1ccc(F)cc1F (stereo not given) | 184 to 186 °C
5 | Cc1ccc(-c2cc(C(F)(F)F)n3cnc(-c4ccncc4)c3n2)cc1C(F)(F)F | 222 °C
6 | COC(=O)C(=CNc1ccsc1C(=O)O)SC | 179 to 180 °C
7 | COc1ccc(-c2nnc(OC)nc2-c2ccc(OC)cc2)cc1 | 135 to 137 °C
8 | Nc1ccc2c(=O)[nH]c(=O)n(CCCCN3CCC(OC(c4ccccc4)c4ccccc4)CC3)c2c1 | 162 to 164 °C
9 | CCCN1C(=O)N(c2ccc(N3CCN(c4ccc(O)cc4)CC3)cc2)NC1C (stereo not given) | 253 °C
10 | C#CCN1CC(=O)N(c2c(C)cccc2C)C1=S | 117 to 121 °C
11 | CCCCCCCCS(=O)(=O)Nc1cc(C(F)(F)F)ccc1Oc1ccccc1C(=O)O | 167 to 168 °C
12 | C1=CC2OC1c1cc3c(cc12)OCO3 | 111 to 112 °C
13 | Cc1ccc(CNC(=O)C2=C(C(=O)Nc3cc(OC4CCCC4)c(Cl)cc3F)CCCC2)cc1 | 168 to 169 °C
14 | NCCn1cnc2c(N)nc3ccccc3c21 | 265 °C
15 | Cn1cc(C#N)c(-c2ccco2)n1 | 104 to 106 °C
16 | CN(C)C1(c2ccccc2)CCC(=CC(=O)N2CCC(c3c[nH]c4ccc(Cl)cc34)CC2)CC1 (stereo not given) | 115 to 119 °C
17 | CCc1ccc(C(C)=O)c(NC(C#N)c2c(Cl)cccc2Cl)c1 (stereo not given) | 111 °C
18 | CC(C)(C)CNc1nnc(-c2ccccc2)c2ccccc12 | 216 °C
19 | O=C1Cc2cc3ccccc3cc2C(c2ccccc2Cl)N1 (stereo not given) | 234 to 237 °C
20 | COc1ccc(CN2Cc3cncn3C(c3ccc(Br)cc3)C2=O)cc1 (stereo not given) | 123 to 124 °C
21 | COc1ccc2[nH]cc(CC#N)c2c1Cl | 138 to 139 °C
22 | COc1ccc2ccc(O)c(-c3nnc(Cl)c4ccccc34)c2c1 | > 210 °C
23 | O=C(NO)c1ccc(OC/C=C/COc2ccc(C(=O)NO)cc2)cc1 | 205 to 210 °C
24 | CCOC(=O)c1cnc2cc(CC)ccc2c1O | 257 to 260 °C
25 | CCc1c(C)nc(SCc2cc(C)ccn2)[nH]c1=O | 130 to 132 °C

Row | SMILES | melting point
26 | CC(=O)n1c(=NC(F)(F)F)oc2ccccc21 | 140 to 143 °C
27 | N#CC1=C(c2ccccc2)Nc2n[nH]cc2C1c1cccc(C#N)c1Br (stereo not given) | > 270 °C
28 | CC(C)(C)C(NC(=O)c1ccc(Cl)cc1)NC(=NC#N)NCc1cccnc1 (stereo not given) | 188 to 189 °C
29 | O=C1CCCCN1CCc1c[nH]c2ccc(Cl)cc12 | 155 °C
30 | CC(=O)Nc1cccc(-n2ccnc2)c1 | 181 to 183 °C
31 | O=C1N(CCOCc2ccccc2)CCN1c1ccc(C(F)(F)F)cc1 | 66 to 68 °C
32 | COc1ccc(Nc2nc(NC3CCCCCC3)nc(N3CCCC3)n2)cc1F | 79 °C
33 | Fc1cccc(C2OC3(CCN(Cc4ccccc4)CC3)N3CCCCC23)c1 (stereo not given) | 113 to 115 °C
34 | CCOc1nnc2c3ccc(Cl)cc3c(-c3ccccc3)nn12 | 226 to 228 °C
35 | CC(=O)c1ccc(N(C)C)c(S(N)(=O)=O)c1 | 184 to 185 °C
36 | O=C1C(c2cccc(Br)c2)n2cncc2CN1Cc1cccnc1 (stereo not given) | 50 to 54 °C
37 | CC(C)(C)c1ccc(N(CCCOc2ccc(C(=O)O)cc2)C(=O)c2ccc3c(c2)OCO3)cc1 | 199 to 203 °C
38 | CC(C)n1nc(-c2cnc(N)nc2-c2cccc(C(F)(F)F)c2)ccc1=O | 164 to 165 °C
39 | Cc1ccc(C(=O)N2CCC(c3ccccc3)=N2)cn1 | 86 to 87 °C
40 | [N-]=[N+]=NC[C@H]1OC(O)[C@H](O)[C@@H](O)[C@@H]1O (stereo not given in full) | 128 to 130 °C
41 | N#Cc1ccc(CC(NC(=O)OCc2ccccc2)C(=O)NCC(=O)NCCC(=O)OCc2ccccc2)cc1 (racemic) | 134 to 135 °C
42 | Cc1cccc2c(Cl)cc(C(F)(Cl)Cl)nc12 | 90 to 94 °C
43 | O=S(=O)(O)c1ccc(Nc2ncnc3cc(Cl)ccc23)cc1 | > 300 °C
44 | O=C(Oc1ccc(Cl)cn1)c1cc2ccccc2sc1=O | 174 to 176 °C
45 | COC(=O)Cc1ccc(OCc2ccc3ccccc3n2)c(OC)c1 | 69 °C
46 | COC(=O)CSc1ccc2ccc(Oc3c(Cl)cc(C(F)(F)F)cc3OC)cc2c1 | 115 °C
47 | CCOC(=NC(=O)Nc1ccc(OC(F)(F)F)cc1)c1ccccc1F | 93 to 95 °C
48 | C=C(NC(C)=O)c1ccc(F)cn1 | 61 to 62.2 °C
49 | CC(C)c1nc(-n2cnc3ccccc32)sc1/C=C/C(=O)O | 262 to 264 °C
50 | CC1(c2ccccc2)CN(c2ccnc(N)c2)C(=O)O1 (stereo not given) | 140 to 141 °C

Row | SMILES | melting point
51 | Cc1cc(OCCNC(=O)C2Cc3ccccc3N2S(=O)(=O)c2ccc(-c3ccccc3C(F)(F)F)cc2)ccc1CC(=O)O (stereo not given) | 85 to 95 °C
52 | O=C1OC(Cc2ccccc2)CN1Cc1ccccc1 (stereo not given) | 81 to 82 °C
53 | CCC(CC)N1CCC(CNc2ccc(Cl)cc2C(=O)Nc2ccc(C)cn2)CC1 | 122 to 124 °C
54 | O=C(O)c1cc(-n2c(-c3cccc(C(F)(F)F)c3)cc3c2CCCC3)ccc1O | 215 to 225 °C
55 | CCCCOc1ccc(C(=O)Nc2ccc3cc(CN4CCCC4)cnc3c2C)cc1 | 161 °C
56 | Cc1ccc(-n2nccc2-c2nn(-c3cccc(C(F)(F)F)c3)ccc2=O)cc1 | 164 to 165 °C
57 | CC(=O)N1OCC(=S)NC1c1ccccc1 (stereo not given) | 172 to 174 °C
58 | CCOC(=O)C(C)(C)Oc1ccc(OCc2ccccc2)cc1C=O | 65 °C
59 | O=C(O)[C@H](Cc1ccccc1)NC(=S)Cc1ccccc1 | 63 to 65 °C
60 | NC(=O)N1CC(Sc2ccc(Cl)cc2)C1 | 210 to 212 °C
61 | CCn1nc(-c2ccc(F)cc2)c(-c2ccncc2)c1C(=O)N(C)Cc1ccccn1 | 144 to 147 °C
62 | CCOC(=O)C(Cc1c(Cl)cc(OC)cc1Cl)(NC(C)=O)C(=O)OCC | 154 to 156 °C
63 | CCCCCC(C=Cc1ccc(C(=O)O)cc1)c1ccc2c(c1)C(C)(C)CCS2 (racemic) | 146 °C
64 | Clc1cc(CC2(Cc3ccnc(Cl)c3)c3ccccc3-c3ncccc32)ccn1 | 188 to 190 °C
65 | O=C(NCCCc1ccccc1)NCc1ccccn1 | 89 to 90 °C
66 | CCCCCCCCCCCC[C@]1(C)OO[C@@H]2C[C@H]1CC(=O)[C@@H]2C | 35 °C
67 | Cc1cccc(NC(=O)Nc2cccc3c2C2CC(=O)CCN2C3=O)n1 (stereo not given) | 226 to 228 °C
68 | Oc1ccc(SC2CC3CC(Sc4ccc(O)cc4)C2C3)cc1 (stereo not given) | 142 to 146 °C
69 | C#CCOC(=O)C=Cc1csc(Cl)c1Cl | 84 to 86 °C
70 | COc1ccc(CNS(=O)(=O)Cc2ccc3[nH]cc(CC#N)c3c2)cc1 | 144 to 145 °C
71 | COC(=O)C(C(C)C)S(=O)(=O)Nc1nc(OC)cc(OC)n1 (stereo not given) | 94 to 95 °C
72 | CCCN(Cc1ccc(-c2ccccc2-c2nnn[nH]2)cc1)c1ccncc1C(=O)O | 195 to 200 °C
73 | Oc1ccccc1NCCCCCCBr | 124 to 126 °C
74 | CCCON1C(C)(C)CC(NC(=O)C2=C(c3ccccc3)C(c3ccccc3)OC2=O)CC1(C)C (stereo not given) | 79 to 85 °C
75 | O=C(O)Cc1cccc(Sc2ccccc2Cl)c1O | 91 to 93 °C

Row | SMILES | melting point
76 | CCOC(=O)C(C)(C)Oc1ccc(-c2ccc(CCNC(=O)c3cccc(C)c3)cc2)cc1 | < 20 °C
77 | Cc1cc(C)c(/C=C/[C@@H](O)C[C@@H](O)CC(=O)OCOC(=O)C(C)(C)C)c(-c2ccc(F)c(C)c2)c1 | 97 to 98 °C
78 | OC1CSC(Oc2ccc(-c3cc4ccccc4o3)nc2)C(O)C1O (stereo not given) | 195 °C
79 | O=C(O)COc1c(Br)cc(-c2c3ccccc3c(Br)c3oc4ccccc4c23)c(O)c1Br | 194 to 240 °C
80 | CCCc1nn(C)c2c(=S)[nH]c(-c3ccccc3OC)nc12 | 160 to 161 °C
81 | CC(=O)c1ccc2c(c1)C(=C1CCN(C)CC1)c1ccccc1S2 | 125 to 127 °C
82 | CN(C)CC1CNc2cc(Cl)ccc2C1 (stereo not given) | 107 to 110 °C
83 | C(=Cc1nc2ccccc2s1)c1ccc2cc(N(c3ccccc3)c3ccccc3)ccc2c1 | 181 to 185 °C
84 | ClCc1nc2cc(Br)ccc2s1 | 107 °C
85 | Cc1cccc(-c2[nH]c(C(C)C)nc2-c2cccc(-c3ccc(F)cc3)c2)n1 | 83 to 85 °C
86 | O=C1Nc2c(cc([N+](=O)[O-])cc2[N+](=O)[O-])C1c1ncnc2c1cnn2C1CCCC1 (stereo not given) | 242 to 246 °C
87 | O=C1CC2CC[C@@H](CN3C(=O)c4ccccc4C3=O)OC2O1 (stereo not given in full) | 186 to 189 °C
88 | O=C(O)CCNC(=O)CCCCC1CCSS1 (stereo not given) | 74 to 76 °C
89 | CCc1ccc(NC(=O)N[C@H]2C[C@H](C(=O)O)Nc3cc(Cl)cc(Cl)c32)cc1 (relative stereo) | 195 to 197 °C
90 | CC(C)(C)OC(=O)NC(CCO)C(=O)OC(c1ccccc1)c1ccccc1 (racemic) | 125 to 129 °C
91 | CN1CCCCC1CCc1ccccc1NS(C)(=O)=O (stereo not given) | 91.5 to 93.5 °C
92 | CC1(C)C=C(N2CCCCC2=O)c2cc(C#N)ccc2O1 | 162 to 163 °C
93 | CCCCN(CCCC)c1nc(Nc2ccc3c(c2)C(=O)c2ccccc2C3=O)nc(N(CCCC)CCCC)n1 | 140 to 145 °C
94 | CC(C)(C)C(=O)Nc1ccc(-c2nc3n(c2-c2ccc(NC(=O)C(C)(C)C)cc2)CCS3)cc1 | 210 to 215 °C
95 | CCCCC(CNC(=O)Nc1c(C(C)C)cccc1C(C)C)c1ccc2c(c1)OCO2 (stereo not given) | 153 to 155 °C
96 | N#Cc1cc(Cc2ccccc2)ccc1N | 68 to 69 °C
97 | CP1(=O)c2ccccc2CN1c1ccc(Br)cc1 (stereo not given) | 135 to 136 °C
98 | CCOC(=N)c1ccccc1-c1ccc(Cn2c(OCC)nc3cccc(C(=O)OC)c32)cc1 | 105 to 106 °C
99 | O=S(Cc1ccccc1)c1ncc(Cl)cn1 (stereo not given) | 92 °C
100 | Cc1cc(-c2cnn3c(C(F)F)cc(-c4ccc(C(F)(F)F)c(C)c4)nc23)ccn1 | 221 °C
